Source: US10053468B2, “Heterocyclic compound” (TAKEDA PHARMACEUTICAL COMPANY LIMITED, priority 2013, dated 2018)
Read-outs that look alike come from different tables or passages of the source.

Legend:
RORγt [1] = molecular target: T1, RORγt (Homo sapiens, UniProt P51449); assay: RORγt binding test using fluorescent-labeled cholesterol (TR-FRET); conditions: read-out: Binding inhibitory rate of fluorescent-labeled cholesterol to RORγt at test compound 1 μM (%)
T1 sequence (P51449 1-497 isoform P51449-2): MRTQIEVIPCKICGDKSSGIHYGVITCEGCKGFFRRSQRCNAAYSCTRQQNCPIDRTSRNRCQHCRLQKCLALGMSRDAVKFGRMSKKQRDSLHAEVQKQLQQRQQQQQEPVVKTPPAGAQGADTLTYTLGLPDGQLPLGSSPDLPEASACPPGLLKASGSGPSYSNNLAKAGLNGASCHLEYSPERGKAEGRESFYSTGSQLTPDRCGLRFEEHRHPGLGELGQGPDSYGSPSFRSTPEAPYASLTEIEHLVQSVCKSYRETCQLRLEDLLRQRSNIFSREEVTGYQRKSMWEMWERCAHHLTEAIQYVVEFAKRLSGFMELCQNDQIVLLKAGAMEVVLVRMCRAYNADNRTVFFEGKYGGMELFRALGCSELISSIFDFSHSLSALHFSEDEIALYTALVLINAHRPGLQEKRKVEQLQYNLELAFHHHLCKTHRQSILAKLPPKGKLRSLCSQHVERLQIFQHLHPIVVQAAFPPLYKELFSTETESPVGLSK
Method in brief: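 After 20 min at room temperature with His-tagged RORγt and BODIPY-cholesterol in pH 7.5 Tris buffer (NaCl, DTT, BSA), compound wells got terbium anti-His antibody for another 20 min. Time-resolved FRET was read with excitation 320 nm, emission 520 nm and a 100 µs delay.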

RORγt [2] = molecular target: T1, RORγt; assay: RORγt binding test using fluorescent-labeled synthetic ligand (TR-FRET); conditions: read-out: Binding inhibitory rate of fluorescent-labeled synthetic ligand to RORγt at test compound 1 μM (%)
Method: RORγt Binding Test Using Fluorescent-labeled Synthetic Ligand
The binding activity of the test compound to RORγt was measured by a time resolved fluorescence resonance energy transfer method (TR-FRET) utilizing histidine-tagged RORγt, fluorescent-labeled synthetic ligand, and terbium-labeled anti-histidine tag antibody (Invitrogen). First, a test compound diluted with an assay buffer (20 mM Tris-HCl (pH 7.5), 100 mM NaCl, 1 mM DTT, 0.1% BSA) was added to a 384 well plate by 3 μL. Then, RORγt diluted with an assay buffer to 240 nM was added by 3 μL, after which fluorescent-labeled synthetic ligand diluted with the assay buffer to 12 μM was added by 3 μL, and the mixture was stood at room temperature for 20 min. Thereafter, a terbium-labeled anti-histidine tag antibody diluted with the assay buffer to 8 nM was added by 3 μL. The mixture was stood at room temperature for 20 min, and fluorescence intensity (excitation wavelength 320 nm, fluorescence wavelength 520 nm, delay time 100 microseconds) was measured by Envision (PerkinElmer).

RORγt [3] = molecular target: T1, RORγt; assay: Cofactor recruitment test (Alpha Screen, biotinylated SRC-1 peptide); type: biochemical; conditions: read-out: Signal value inhibitory rate at test compound 1 μM (%)
Method: Cofactor Recruitment Test
Cofactor recruitment test was performed by Alpha Screen (Histidine Detection Kit, PerkinElmer) method. First, a test compound was diluted with an assay buffer (50 mM Tris-HCl (pH 7.5), 50 mM KCl, 1 mM DTT, 0.1% BSA) and added to a 384 well plate by 5 μL. […] The mixture was stood in a dark place for 1 hr, and the signal value was measured by Envision (PerkinElmer).

RORγt [4] = molecular target: T1, RORγt; assay: Jurkat reporter test (human IL-17 ROR response element luciferase, RORγt vector); type: cell-based; conditions: read-out: Luminescence level inhibitory rate at test compound 3 μM (%)
Method in brief: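 Luminescence (Bright-Glo, 10 min, RT) was measured after overnight compound treatment of electroporated Jurkat cells (1350 V, 10 ms interval, 3 pulses). The reaction medium was RPMI with 10% lipid-reduced FCS, 10 mM HEPES (pH 7.5) and 5 μM lovastatin.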

[5] = test compound 3 μM, Jurkat cells

SMILES	inhibition at 1 µM (RORγt [1]) [%]	inhibition at 1 µM (RORγt [2]) [%]	inhibition at 1 µM (RORγt [3]) [%]	inhibition at 3 µM (RORγt [4]; Jurkat) [%]	inhibition at 3 µM (RORγt [4]; [5]) [%]
COc1ccc2c(c1)CCN(C(=O)c1cc(O)no1)[C@H]2C(=O)Nc1ccc([Si](C)(C)C)c(F)c1 [Example 7, (1R)-N-(3-fluoro-4-(trimethylsilyl)phenyl)-2-((3-hydroxy-1,2-oxazol-5-yl)carbonyl)-6-methoxy-1,2,3,4-tetrahydroisoquinoline-1-carboxamide]	102	101	92.8	101	–
COc1ccc2c(c1)CCN(C(=O)c1cc(O)no1)[C@H]2C(=O)Nc1ccc(C(C)(C)C)c(F)c1 [Example 13, (1R)-N-(4-tert-butyl-3-fluorophenyl)-2-((3-hydroxy-1,2-oxazol-5-yl)carbonyl)-6-methoxy-1,2,3,4-tetrahydroisoquinoline-1-carboxamide]	100	102	80.4	–	101
COc1ccc2c(c1)CCN(C(=O)[C@@H]1CNC(=O)C1)[C@H]2C(=O)Nc1ccc(C(C)(C)C)c(F)c1 [Example 25, (1R)-N-(4-tert-butyl-3-fluorophenyl)-6-methoxy-2-(((3S)-5-oxopyrrolidin-3-yl)carbonyl)-1,2,3,4-tetrahydroisoquinoline-1-carboxamide]	102	101	85.8	–	102
COc1ccc2c(c1)CCN(C(=O)[C@H]1CNC(=O)C1)[C@H]2C(=O)Nc1ccc(C(C)(C)C)c(F)c1 [Example 26, (1R)-N-(4-tert-butyl-3-fluorophenyl)-6-methoxy-2-(((3R)-5-oxopyrrolidin-3-yl)carbonyl)-1,2,3,4-tetrahydroisoquinoline-1-carboxamide]	97.7	101	81.5	–	102
COc1ccc2c(n1)CCN(C(=O)Cc1cc(O)no1)C2C(=O)Nc1ccc(C(C)(C)C)c(F)c1 (stereo not shown) [Example 41, N-(4-tert-butyl-3-fluorophenyl)-6-((3-hydroxy-1,2-oxazol-5-yl)acetyl)-2-methoxy-5,6,7,8-tetrahydro-1,6-naphthyridine-5-carboxamide]	102	102	74.9	–	98.9
COc1ccc2c(c1)CCN(C(=O)Cc1cc(O)no1)[C@H]2C(=O)Nc1cc(F)c(C(C)(C)C)c(F)c1 [Example 43, (1R)-N-(4-tert-butyl-3,5-difluorophenyl)-2-((3-hydroxy-1,2-oxazol-5-yl)acetyl)-6-methoxy-1,2,3,4-tetrahydroisoquinoline-1-carboxamide]	102	102	88.3	–	101
COc1ccc2c(c1)CCN(C(=O)Cc1cc(O)no1)[C@H]2C(=O)Nc1cc(F)c2c(c1)CCC2(C)C [Example 45, (1R)-N-(7-fluoro-1,1-dimethyl-2,3-dihydro-1H-inden-5-yl)-2-((3-hydroxy-1,2-oxazol-5-yl)acetyl)-6-methoxy-1,2,3,4-tetrahydroisoquinoline-1-carboxamide]	103	102	76.9	–	99.6
COc1ccc2c(c1)OCCN(C(=O)Cc1cc(O)no1)[C@H]2C(=O)Nc1cc(F)c([Si](C)(C)C)c(F)c1 [Example 56, (5R)-N-(3,5-difluoro-4-(trimethylsilyl)phenyl)-4-((3-hydroxy-1,2-oxazol-5-yl)acetyl)-8-methoxy-2,3,4,5-tetrahydro-1,4-benzoxazepine-5-carboxamide]	101	102	61.3	99.9	–
COc1ccc2c(c1)CCN(C(=O)CCc1cc(O)no1)[C@H]2C(=O)Nc1cc(F)c2c(c1)CCC2(C)C [Example 63, (1R)-N-(7-fluoro-1,1-dimethyl-2,3-dihydro-1H-inden-5-yl)-2-(3-(3-hydroxy-1,2-oxazol-5-yl)propanoyl)-6-methoxy-1,2,3,4-tetrahydroisoquinoline-1-carboxamide]	100	102	70	–	99.9
COc1ccc2c(c1)CCN(C(=O)Cc1cc(O)no1)[C@H]2C(=O)Nc1ccc(C(C)(C)C)c(C#N)c1 [Example 65, (1R)-N-(4-tert-butyl-3-cyanophenyl)-2-((3-hydroxy-1,2-oxazol-5-yl)acetyl)-6-methoxy-1,2,3,4-tetrahydroisoquinoline-1-carboxamide]	102	101	98	–	100
C[Si](C)(C)c1c(F)cc(NC(=O)[C@H]2c3ccc(S(C)(=O)=O)cc3CCN2C(=O)CCCC(=O)O)cc1F [Example 235, 5-((1R)-1-((3,5-difluoro-4-(trimethylsilyl)phenyl)carbamoyl)-6-(methylsulfonyl)-3,4-dihydroisoquinolin-2(1H)-yl)-5-oxopentanoic acid]	–	102	45	93	–
CCOc1ccc2c(c1)CCN(C(=O)NCCCC(=O)O)[C@H]2C(=O)Nc1cc(F)c([Si](C)(C)C)c(F)c1 [Example 238, 4-((((1R)-1-((3,5-difluoro-4-(trimethylsilyl)phenyl)carbamoyl)-6-ethoxy-3,4-dihydroisoquinolin-2(1H)-yl)carbonyl)amino)butanoic acid]	–	101	92	100	–
CCOc1ccc2c(c1)CCN(C(=O)CC(C)(O)CC(=O)O)[C@H]2C(=O)Nc1cc(F)c([Si](C)(C)C)c(F)c1 (stereo partly drawn) [Example 240, 5-((1R)-1-((3,5-difluoro-4-(trimethylsilyl)phenyl)carbamoyl)-6-ethoxy-3,4-dihydroisoquinolin-2(1H)-yl)-3-hydroxy-3-methyl-5-oxopentanoic acid]	–	101	91	101	–
COc1ccc2c(c1)CCN(C(=O)NCCCC(=O)O)[C@H]2C(=O)Nc1cc(F)c([Si](C)(C)C)c(F)c1 [Example 242, 4-((((1R)-1-((3,5-difluoro-4-(trimethylsilyl)phenyl)carbamoyl)-6-methoxy-3,4-dihydroisoquinolin-2(1H)-yl)carbonyl)amino)butanoic acid]	–	101	94	101	–
COc1ccc2c(c1)CCN(C(=O)[C@@H](O)CCC(=O)O)[C@H]2C(=O)Nc1cc(F)c([Si](C)(C)C)c(F)c1 [Example 248, (4S)-5-((1R)-1-((3,5-difluoro-4-(trimethylsilyl)phenyl)carbamoyl)-6-methoxy-3,4-dihydroisoquinolin-2(1H)-yl)-4-hydroxy-5-oxopentanoic acid]	–	101	87	100	–
C[Si](C)(C)c1c(F)cc(NC(=O)[C@H]2c3ccc4c(c3CCN2C(=O)CCCC(=O)O)OCO4)cc1F [Example 254, 5-((6R)-6-((3,5-difluoro-4-(trimethylsilyl)phenyl)carbamoyl)-8,9-dihydro[1,3]dioxolo[4,5-f]isoquinolin-7(6H)-yl)-5-oxopentanoic acid]	–	102	101	102	–
CC1(C)CCc2cc(NC(=O)[C@H]3c4ccc5c(c4CCN3C(=O)CCCC(=O)O)OCO5)cc(F)c21 [Example 256, 5-((6R)-6-((7-fluoro-1,1-dimethyl-2,3-dihydro-1H-inden-5-yl)carbamoyl)-8,9-dihydro[1, 3]dioxolo[4,5-f]isoquinolin-7 (6H)-yl)-5-oxopentanoic acid]	–	100	102	–	83
